{"source": "patent US20090246212A1", "about": "“DEVELOPMENT OF METHOD FOR SCREENING FOR DRUG CAPABLE OF IMPROVING PRODUCTION OF REGULATORY T CELLS AND METHOD FOR PRODUCING REGULATORY T CELLS USING IMMUNOSUPPRESSIVE MACROLIDE ANTIBIOTIC” (KYOTO UNIVERSITY, priority 2005, published 2009)", "key": {"[1]": {"system": "CD45RA^+CD25^+CD4^+ T cells", "assay": "FACS phenotype analysis of the T cell line from CD45RA^+CD25^+CD4^+ T cells cultured with rapamycin", "format": "cell-based, human", "description": "(§1) PBMC derived from the subjects, or expanded T cell line were incubated with various antibodies for 30 min at 4° C. in the dark, washed, and analyzed using a BD FACSAria cell sorter and a FACSDiVA software (Becton Dickinson). The antibodies used were perCP-conjugated anti-CD4 mAb, biotin-conjugated anti-CD25 mAb, FITC-conjugated anti-CD45RA mAb, PE-conjugated anti-CD45RB mAb, anti-CD45RO mAb, anti-CD62L mAb, anti-CD38 mAb, anti-GITR mAb, and anti-TNFRII mAb. For intracellular staining with CTLA-4, the cells were subjected to cell surface staining, fixation, and permeabilization with Cytofix/Cytoperm solution (Becton Dickinson), and then intracellularly stained with PE-conjugated anti-CTLA-4.\n(§2) CD45RA^+CD25^+CD4^+ T cells or CD45RA^+CD25^−CD4^+ T cells in human peripheral blood separated in the same manner as Example 1 (5×10̂4 cells/well) were stimulated with anti-human CD3 and CD28 conjugate beads in a ratio of 4 beads per cell in a 96-well round-bottomed culture plate containing 200 μl per well of a proliferation medium (AlyS505N (produced by Cell Science & Technology Institute) supplemented with 2% human AB serum) in the presence of human IL-2 (1000 U/ml, produced by Cell Science & Technology Institute). Rapamycin (20 nM, produced by Sigma) was added to the medium 0 or 40 days after the start of cultivation. Every 3 to 4 days, half of the medium was replaced with a fresh proliferation medium containing IL-2. If necessary, the cells were separated and repeatedly re-stimulated with anti-CD3/CD28 antibody conjugate beads every 10 to 14 days. Fifty days after the start of cultivation, the cells were collected and used for FACS analysis.\n(§3) Expanded T cell lines were incubated with various antibodies for 30 minutes at 4° C. in the dark, washed, and analyzed using BD FACSAria cell sorter and FACSDiVA software (Becton Dickinson). The antibodies and staining conditions used were the same as Example 1."}, "[2]": {"settings": "used alone or in combination with picibanil; cited from earlier work"}, "[3]": {"system": "CD45RA^+CD25^−CD4^+ T cells", "assay": "FACS phenotype analysis of the T cell line from CD45RA^+CD25^−CD4^+ T cells cultured with rapamycin", "format": "cell-based, human", "settings": "rapamycin 20 nM from day 40, collected day 50", "description": "as §1, §2, §3"}, "[4]": {"settings": "rapamycin 20 nM from day 40, collected day 50"}}}
{"smiles": "CO[C@H]1C[C@@H]2CC[C@@H](C)[C@@](O)(O2)C(=O)C(=O)N2CCCC[C@H]2C(=O)O[C@H]([C@H](C)C[C@@H]2CC[C@@H](O)[C@H](OC)C2)CC(=O)[C@H](C)/C=C(\\C)[C@@H](O)[C@@H](OC)C(=O)[C@H](C)C[C@H](C)/C=C/C=C/C=C/1C", "note": "[rapamycin]", "values": [{"measurement": "CD45RO phenotype of the T cell line", "setting": "[1]; rapamycin 20 nM from day 0, collected day 50", "value": "negative"}, {"measurement": "CD25 expression relative to CD45RA^−CD25^high+CD4^+ T cells in peripheral blood", "setting": "[1]; [4]", "value": "about 0.8 times"}, {"measurement": "CD45RA expression relative to CD45RA^+CD25^+CD4^+ T cells in peripheral blood", "setting": "[1]; [4]", "value": "about ⅙"}, {"measurement": "CD45RB expression relative to CD45RA^−CD25^high+CD4^+ T cells in peripheral blood", "setting": "[1]; [4]", "value": "about 4 times"}, {"measurement": "CD45RO expression relative to CD45RA^−CD25^high+CD4^+ T cells in peripheral blood", "setting": "[1]; [4]", "value": "about 1/50"}, {"measurement": "CD62L expression relative to CD45RA^−CD25^high+CD4^+ T cells in peripheral blood", "setting": "[1]; [4]", "value": "about ⅙"}, {"measurement": "GITR / CTLA4 phenotype of the T cell line", "setting": "[1]; [4]", "value": "GITR^+CTLA4^+"}, {"measurement": "antitumor activity", "setting": "[2]", "value": "possess antitumor activity"}, {"measurement": "CD25 expression relative to CD45RA^−CD25^high+CD4^+ T cells in peripheral blood", "setting": "[3]", "value": "about ⅕"}, {"measurement": "CD45RA expression intensity relative to CD45RA^+CD25^−CD4^+ T cells at the start of cultivation", "setting": "[3]", "value": "about 1 time"}, {"measurement": "CD45RO phenotype of the T cell line", "setting": "[3]", "value": "negative"}, {"measurement": "CD62L expression relative to CD45RA^−CD25^high+CD4^+ T cells in peripheral blood", "setting": "[3]", "value": "about ⅓"}, {"measurement": "GITR / CTLA4 / CD45RB phenotype of the T cell line", "setting": "[3]", "value": "GITR^+CTLA4^+CD45RB^high+"}]}
